{"source": "paper PMC9164157", "about": "“Characterization and Identification of a New Daidzein Reductase Involved in (S)-Equol Biosynthesis in Clostridium sp. ZJ6” (Frontiers in Microbiology, 2022)", "key": {"NATTS DZNR": {"molecular_target": "T1, NATTS DZNR (Slackia sp. NATTS, UniProt H3JUE4)", "T1 construct": "gene ddce; synthetic gene in pETDuet-1, expressed in E. coli BL21 (DE3), purified", "T1 sequence (H3JUE4 1-644)": "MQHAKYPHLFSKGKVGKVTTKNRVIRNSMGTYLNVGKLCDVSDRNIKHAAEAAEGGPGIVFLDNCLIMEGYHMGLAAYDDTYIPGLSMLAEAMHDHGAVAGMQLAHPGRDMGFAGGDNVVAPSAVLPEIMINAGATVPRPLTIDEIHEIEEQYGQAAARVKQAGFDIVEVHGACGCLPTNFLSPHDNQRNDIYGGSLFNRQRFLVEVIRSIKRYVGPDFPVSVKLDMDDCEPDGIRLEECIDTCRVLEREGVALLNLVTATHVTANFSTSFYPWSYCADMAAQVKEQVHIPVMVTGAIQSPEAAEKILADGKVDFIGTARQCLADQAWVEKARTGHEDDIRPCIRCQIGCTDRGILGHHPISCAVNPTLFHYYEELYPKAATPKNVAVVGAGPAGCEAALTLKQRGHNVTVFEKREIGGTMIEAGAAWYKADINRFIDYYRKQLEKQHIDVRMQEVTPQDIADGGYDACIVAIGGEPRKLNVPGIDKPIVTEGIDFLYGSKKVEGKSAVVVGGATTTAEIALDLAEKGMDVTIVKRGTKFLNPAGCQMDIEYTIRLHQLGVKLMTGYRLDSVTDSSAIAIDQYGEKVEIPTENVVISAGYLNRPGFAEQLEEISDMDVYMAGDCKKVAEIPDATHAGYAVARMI", "assay": "daidzein reductase assay, HPLC", "assay_type": "biochemical", "conditions": "NAD(P)H, anaerobic"}, "Lac 20_92 DZNR": {"molecular_target": "T2, Lac 20_92 DZNR (Lactococcus garvieae, UniProt E1CIA4)", "T2 construct": "gene l-dznr; synthetic gene in pETDuet-1, expressed in E. coli BL21 (DE3), purified", "T2 sequence (E1CIA4 1-644)": "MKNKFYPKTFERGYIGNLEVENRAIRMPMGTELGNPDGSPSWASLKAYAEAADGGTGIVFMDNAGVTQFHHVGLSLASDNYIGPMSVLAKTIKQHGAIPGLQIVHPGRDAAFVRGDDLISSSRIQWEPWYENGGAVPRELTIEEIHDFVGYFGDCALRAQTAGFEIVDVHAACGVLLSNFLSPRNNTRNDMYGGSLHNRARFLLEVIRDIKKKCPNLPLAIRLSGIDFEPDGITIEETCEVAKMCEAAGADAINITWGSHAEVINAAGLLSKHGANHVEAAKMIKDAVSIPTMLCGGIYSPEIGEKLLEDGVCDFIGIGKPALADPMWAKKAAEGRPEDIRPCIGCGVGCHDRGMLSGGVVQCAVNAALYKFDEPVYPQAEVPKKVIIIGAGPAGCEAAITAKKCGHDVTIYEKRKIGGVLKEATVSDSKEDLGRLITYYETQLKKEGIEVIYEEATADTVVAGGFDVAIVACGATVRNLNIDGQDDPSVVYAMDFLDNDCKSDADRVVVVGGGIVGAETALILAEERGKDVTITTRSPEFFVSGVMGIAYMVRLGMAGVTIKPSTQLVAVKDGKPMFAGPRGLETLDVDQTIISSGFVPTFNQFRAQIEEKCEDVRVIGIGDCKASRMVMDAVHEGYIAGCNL", "assay": "daidzein reductase assay, HPLC", "assay_type": "biochemical", "conditions": "NAD(P)H, anaerobic, 37°C"}}}
{"compound": "O=c1c(-c2ccc(O)cc2)coc2cc(O)ccc12", "note": "[daidzein, 7-hydroxy-3-(4-hydroxyphenyl)-4H-chromen-4-one]", "values": [{"measurement": "daidzein reductase assay, HPLC", "setting": "NATTS DZNR", "result": "all recombinant proteins showed DZNR activity, which is an ability to convert DZN to DHD"}, {"measurement": "daidzein reductase assay, HPLC", "setting": "Lac 20_92 DZNR", "result": "all recombinant proteins showed DZNR activity, which is an ability to convert DZN to DHD"}]}
